Entries after “also recorded” stand apart in the source; their conditions may differ.
Key:
[1] = target: cT1R1-NTD (N-terminal domain of the cat T1R1 taste receptor) (Felis catus, UniProt A0ABI7Z2I4); assay: Ligand binding assay by intrinsic tryptophan fluorescence of refolded cT1R1-NTD; conditions: for synergetic effect of IMP on L-amino acid binding (shift of binding curve): 0.3 μM IMP final concentration; for maximal amplitude of cT1R1-NTD fluorescence induced by the amino acid in presence of IMP: compared to the other tested L-amino acids
Experimental: The intrinsic fluorescence of cT1R1-NTD was measured as previously described by Nie et al. using a Cary Eclipse spectrofluorometer (Varian Instruments) equipped with a Peltier temperature control unit. Sample proteins were excited at 295 nm and emission spectra were recorded from 300 to 400 nm, with 5-nm and 10-nm bandwidth for emission and excitation, respectively. For titration experiments, fluorescence spectra were recorded using 0.5 μM protein solution in 50 mM Tris-HCl pH 8.0, 150 mM NaCl, 1mM DTT and 0.1 mM DDM. Ligand solutions were freshly prepared in the same buffer. Successive aliquots of potential ligands were added to 400 μL of cT1R1-NTD solution. The temperature was kept constant at 20°C. Fluorescence measurements were corrected for dilution, bleaching and nonspecific buffer quenching. Kd values and standard errors were calculated from a plot of the ratio between the fluorescence intensity variation and the maximum of fluorescence intensity variation versus concentration of total ligand, obtained with a standard non-linear regression method and using one site saturation ligand binding equation using SigmaPlot software. […] The Kd values of ligand-receptor interactions were determined using Eq (1) ΔF/ΔFmax = Bmax×[L]/(Kd+[L]) (1) Where Kd value is the apparent dissociation constant, ΔF is the difference between the fluorescence intensity at a given concentration of ligand and the fluorescence intensity in the absence of ligand, and ΔFmax is the difference at infinite ligand concentration [L], Bmax is the maximum fluorescence signal, [L] corresponds to the concentration of ligands. The reported Kd values are the average of more than nine measurements performed on at least three independently refolded protein samples. […] Statistical analyses: Dunnett’s test was used to determine the statistical significance between data means.

human T1R3-NTD = target: human T1R3-NTD; parameters: method as in PMID 22450161, PMID 22909933; conditions: cited from earlier work
[2] = ligand alone, no IMP, Fig 6: 100 μM final concentration, excitation 295 nm, emission 340 nm

cT1R1-NTD (N-terminal domain of the cat T1R1 taste receptor), sequence (A0ABI7Z2I4 entry or part of it): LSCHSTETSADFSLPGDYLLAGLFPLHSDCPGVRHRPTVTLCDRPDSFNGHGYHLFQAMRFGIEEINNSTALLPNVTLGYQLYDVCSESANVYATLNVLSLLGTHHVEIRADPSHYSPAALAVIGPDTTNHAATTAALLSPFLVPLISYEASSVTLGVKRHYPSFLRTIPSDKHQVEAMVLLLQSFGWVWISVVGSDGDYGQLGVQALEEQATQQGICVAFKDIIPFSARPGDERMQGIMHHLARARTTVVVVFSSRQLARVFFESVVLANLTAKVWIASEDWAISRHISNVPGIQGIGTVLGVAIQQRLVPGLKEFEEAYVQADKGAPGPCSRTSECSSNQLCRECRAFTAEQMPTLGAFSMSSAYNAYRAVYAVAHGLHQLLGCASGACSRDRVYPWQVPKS

Compound	effect on cT1R1-NTD intrinsic fluorescence [1, 2]	synergetic effect of IMP on L-amino acid binding (shift of binding curve) [1]	further results
N[C@@H](CS)C(=O)O [L-Cys]	no effect; also recorded: does not affect cT1R1-NTD fluorescence	–	fluorescence enhancement of cT1R1-NTD generated by 0.3 μM IMP in the presence of the amino acid ([1]; 0.3 μM IMP, compared with absence of L-Cys): not significantly different
CC[C@H](C)[C@H](N)C(=O)O [L-Ile]	saturable intrinsic fluorescent enhancement	relatively modest	–
N=C(N)NCCC[C@H](N)C(=O)O [L-Arg]	saturable intrinsic fluorescent enhancement	relatively modest	maximal amplitude of cT1R1-NTD fluorescence induced by the amino acid in presence of IMP ([1]; 0.3 μM IMP): increased
OC[C@H]1O[C@H](O[C@]2(CCl)O[C@H](CCl)[C@@H](O)[C@@H]2O)[C@H](O)[C@@H](O)[C@H]1Cl [sucralose]	–	–	binding affinity (human T1R3-NTD): millimolar range
Nc1nc2c(ncn2[C@@H]2O[C@H](COP(=O)(O)O)[C@@H](O)[C@H]2O)c(=O)[nH]1 [GMP, guanosine-5’-monophosphate]	–	–	effect on cT1R1-NTD intrinsic fluorescence ([1]; GMP alone at low concentrations (below 1 μM)): fluorescence enhancement
N[C@@H](Cc1c[nH]cn1)C(=O)O [L-His, L-histidine]	saturable intrinsic fluorescent enhancement	more pronounced	maximal amplitude of cT1R1-NTD fluorescence induced by the amino acid in presence of IMP ([1]; 0.3 μM IMP): increased
C[C@H](N)C(=O)O [L-Ala, L-alanine]	saturable intrinsic fluorescent enhancement	relatively modest	–

Source: publication PMC5662223, “Biophysical and functional characterization of the N-terminal domain of the cat T1R1 umami taste receptor expressed in Escherichia coli” (PLoS ONE, 2017)
